Here are results for 13 molecules from patent US6384061B1, “Hydantoin compounds and methods related thereto” (LG Chemical Ltd., priority 2000, dated 2002).

The target of one assay is T1, Ras farnesyl transferase (Homo sapiens, UniProt P49354+P49356).
T1 construct: made in house
Nature of the assay: Ras farnesyl transferase inhibiting activity (filter-binding, tritium-farnesylpyrophosphate, Ras-CVLS substrate). The format is biochemical. To be noted: recombinant Ras farnesyl transferase, 30 minutes at 37° C., read-out: Ftase IC50.

Assay [1] has as its system intracellular Ras farnesyl transferase, Rat2 cell line. The assay is described as follows: Intracellular Ras farnesyl transferase inhibiting activity in transformed Rat2 cells (35S-methionine labelling, Y13-259 immunoprecipitation, SDS-PAGE). In kind it is cell-based. To be noted: Rattus norvegicus; transformed Rat2 fibroblast cell line; concentration inhibiting 50% of farnesyl binding of Ras protein; read-out: Ftase CIC50. The essentials: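 Rat2 fibroblasts transformed with H-Ras, or with H-Ras carrying the K-Ras polybasic lysine C-terminus, were treated with compound (1% DMSO). After 4 h they were labelled for 20 h with 150 μCi/ml 35S-methionine. Lysates were immunoprecipitated with Y13-259, run on 13.5% SDS-PAGE and autoradiographed; CIC50 is the concentration halving farnesylated versus unfarnesylated Ras band intensity.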

Assay [2] deals with T2, Geranylgeranyl transferase (Bos taurus, UniProt P29702+Q5EAD5).
T2 construct: Geranylgeranyl transferase was purified from bovine brain; from tissue; host or cells: bovine brain
The assay is described as follows: Geranylgeranyl transferase inhibiting activity (geranylgeranyl pyrophosphate, Ras-CVIL substrate). The format is biochemical. To be noted: geranylgeranyl transferase purified from bovine brain, read-out: GGtase IC50. The essentials:
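Bovine-brain-purified enzyme run as in the farnesyl transferase assay, with geranylgeranyl pyrophosphate and Ras-CVIL substrate protein under similar reaction conditions.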

As for `CCOC(=O)CC1C(=O)N(Cc2cncn2Cc2ccc(C#N)cc2)C(=O)N1Cc1cccc2ccccc12` (stereo not drawn) [Compound 77, {1-[3-(4-cyano-benzyl)-3H-imidazol-4-ylmethyl]-3-naphthalen-1-ylmethyl-2,5-dioxo-imidazolidin-4-yl}-acetic acid ethyl ester], the IC50 at Ras farnesyl transferase is 0.05 µM; in assay [1], below 10 µM; in assay [2], above 10 µM.

As for `COCCN(C)C(=O)c1ccc(CN2C(=O)N(CCCn3ccnc3)C(=O)C2(C)c2cccc3ccccc23)cc1` (stereo not drawn) [Compound 42, 4[3-(3-imidazol-1-yl-propyl)-5-methyl-5-naphthalen-1-yl-2,4-dioxo-imidazolidin-1-ylmethyl]-N-(2-methoxy-ethyl)-N-methyl-benzamide], the IC50 at Ras farnesyl transferase was 1 µM; in assay [1], below 20 µM; in assay [2], above 10 µM.

Take `CC1(c2cccc3ccccc23)C(=O)N(CCCn2ccnc2)C(=O)N1Cc1cccc(C#N)c1` (stereo not drawn) [Compound 32, 3-[3-(3-imidazol-1-yl-propyl)-5-methyl-5naphthalen-1-yl-2,4-dioxo-imidazolidin-1-ylmethyl]-benzonitrile]: the IC50 on Ras farnesyl transferase is 0.092 µM; in assay [1], below 20 µM; in assay [2], above 10 µM.

In the case of `COc1ccc(C(=O)N2C(=O)N(CCCn3ccnc3)C(=O)C2(C)c2cccc3ccccc23)cc1` (stereo not drawn) [Compound 64, 3-(3-imidazol-1-yl-propyl)-1-(4-methoxy-benzoyl)-5-methyl-5-naphthalen-1-yl-imidazolidin-2,4-dione], the IC50 is 0.7 µM on Ras farnesyl transferase, below 20 µM in assay [1] and above 10 µM in assay [2].

Regarding `CC1(c2cccc3ccccc23)C(=O)N(CCCn2ccnc2)C(=O)N1Cc1c(F)c(F)c(F)c(F)c1F` (stereo not drawn) [Compound 17, 1-(pentafluoro-benzyl)-3-(3-imidazol-1-yl-propyl)-5-methyl-5-naphthalen-1-yl-imidazolidin-2,4-dione], the results for the IC50 (at Ras farnesyl transferase; in assay [1]; in assay [2]) were 1.5 µM, below 20 µM and above 10 µM, respectively.

As for `CN1C(=O)N(Cc2cncn2Cc2ccc(C#N)cc2)C(=O)C1(C)c1cccc2ccccc12` (stereo not drawn) [Compound 60, 4-[5-(3-methyl-4-methyl-4-naphthalen-1-yl-2,5-dioxo-imidazolidin-1-ylmethyl)-imidazol-1-ylmethyl]-benzonitrile], the IC50 was 0.16 µM at Ras farnesyl transferase, below 20 µM in assay [1] and above 10 µM in assay [2].

Consider `CSCCC(NC(=O)CN1C(=O)N(CCCn2ccnc2)C(=O)C1(C)c1cccc2ccccc12)C(=O)O` (stereo not drawn) [Compound 14, 2-{2-[3-(3-imidazol-1-yl-propyl)-5-methyl-5-naphthalen-1-yl-2,4-dioxo-imidazolidin-1-yl]-acetylamino}-4-methylsulfanyl-butyric acid], for which the figures for the IC50 (on Ras farnesyl transferase; in assay [1]; in assay [2]) were 0.001 µM, below 20 µM and above 10 µM, respectively.

As to `CC1(c2cccc3ccccc23)C(=O)N(CCCc2cnc[nH]2)C(=O)N1CC(=O)NC(Cc1cccs1)C(=O)O` (stereo not drawn) [Compound 9, 2-(2-{3-[3-(3H-imidazol-4-yl)-propyl]-5-methyl-5-naphthalen-1-yl-2,4-dioxo-imidazolidin-1-yl}-acetamino)-3-thiophen-2-yl-propionic acid], the values for the IC50 (on Ras farnesyl transferase; in assay [1]; in assay [2]) were 0.015 µM, below 1 µM and 80 µM, respectively.

Consider `COC(=O)C[C@H]1C(=O)N(Cc2cncn2Cc2ccc(C#N)cc2)C(=O)N1Cc1cccc2ccccc12` [Compound 79, {1-[3-(4-cyano-benzyl)-3H-imidazol-4-ylmethyl]-3-naphthalen-1-ylmethyl-2,5-dioxo-imidazolidin-(4S)-yl}-acetic acid methyl ester], for which the IC50 on Ras farnesyl transferase was 0.04 µM; in assay [1], below 10 µM; in assay [2] it was above 10 µM.

As for `CC1(c2cccc3ccccc23)C(=O)N(CCCn2ccnc2)C(=O)N1Cc1ccc(C(=O)O)cc1` (stereo not drawn) [Compound 39, 4-[3-(3-imidazol-1-yl-propyl)-5-methyl-5-naphthalen-1-yl-2,4-dioxo-imidazolidin-1-ylmethyl]-benzoic acid], the IC50 at Ras farnesyl transferase was 0.2 µM; in assay [1], below 20 µM; in assay [2], above 10 µM.

On to `CSc1ccc(CN2C(=O)N(CCCn3ccnc3)C(=O)C2(C)c2cccc3ccccc23)cc1C#N` (stereo not drawn) [Compound 29, 5-[3-(3-imidazol-1-yl-propyl)-5-methyl-5-naphthalen-1-yl-2,4-dioxo-imidazolidin-1-ylmethyl]-2-methylsulfanyl-benzonitrile], for which the IC50 on Ras farnesyl transferase was 0.08 µM; in assay [1] it was below 20 µM; in assay [2] it was above 10 µM.

As for `O=C1CN(c2cccc3ccccc23)C(=O)N1CCCn1ccnc1` [Compound 87, 3-(3-imidazol-1-yl-propyl)-1-naphthalen-1-yl-imidazolidin-2,4-dione], the IC50 is 5 µM on Ras farnesyl transferase, above 50 µM in assay [1] and above 10 µM in assay [2].

Consider `CSc1ccc(CN2C(=O)N(CCCn3ccnc3)C(=O)C2(C)c2cccc3ccccc23)cc1` (stereo not drawn) [Compound 26, 3-(3-imidazol-1-yl-propyl)-1-(4-methylsulfanyl-benzyl)-5-methyl-5-naphthalen-1-yl-imidazolidin-2,4-dione], for which the IC50 at Ras farnesyl transferase was 0.7 µM; in assay [1], below 20 µM; in assay [2], above 10 µM.
